Laboratory results published in patent US9439976B2, “Compositions and methods for using cathepsin E cleavable substrates” (The Methodist Hospital System, priority 2013, dated 2016).
Where a SMILES comes first, the peptide text is derived from it. The star is where a group is joined. X1 = O=C(O)CCC(=O)CN*

What was measured:
[1] = tested on: PDAC (p53 conditional deletion/LSL-KrasG12D/Pdx1-Cre); experiment: In vivo photodynamic therapy, TUNEL staining of PDAC pancreas in genetically engineered mice; set-up: species or system mouse; settings: mice with PDAC, 1 mg 5-ALA equivalent/kg i.v., 10 J/cm^2 light at 652 nm 1 hour after injection, tissue 24 hours later
Method: All animal studies were performed in compliance with the approved animal protocols and guidelines of Institutional Animal Care and Use Committee of University of Texas MD Anderson Cancer Center. […] Littermates without PDAC served as controls. LSL-KRasG12D, p53-floxed, and Pdx-1-Cre genetic mice were obtained from the Mouse Models for Human Cancer Consortium Repository (Rockville, Md.). Mice were divided into three groups of five transgenic mice with PDAC tumors and three normal littermate controls. Mice were injected with a single dose of saline, free 5-ALA, or the 5-ALA prodrug (1 mg 5-ALA equivalent/kg, 50 μL) intravenously through the tail vein using a 30 gauge needle. Mice were incubated for 60 minutes in a full metabolically active environment and anesthetized by intraperitoneal injection of sodium pentobarbital, at a dose of 50-90 mg/kg diluted to 6 mg/ml. The pancreas was exposed through a left abdominal incision (1 cm, laparotomy) and treated with a 10-J/cm^2 dose of light using a diode laser (652 nm) and incidence fluence rate of 50 mW/cm^2 for 3.5 minutes. After PDT, the pancreas was carefully returned to the peritoneal cavity and the abdomen was closed. One day after light treatment, animals were sacrificed and the pancreases were harvested for subsequent evaluation. […]

MPanc96-CTSE cells [2] = experiment: Cellular release of 5-ALA, PpIX fluorescence imaging, Cath E-high cells; format: cell-based, human; settings: unfixed MPanc96-CTSE cells, 0.5 μM, 37° C.
Method: Mpanc96-CTSE and Mpanc96-FG30 cells (1.2×10^4) were treated in 96-well plates with various concentrations (0.1, 0.5, 1, and 5 μM in 100 μL) of 5-ALA prodrug, incubated for 30 minutes at 37° C., and washed several times with PBS. Fluorescence images of the cells were acquired using an inverted epifluorescence microscope and a TRITC (tetramethyl rhodamine isothiocyanate) filter (λex=557 nm and λem=576 nm). Free 5-ALA and untreated cells were included as controls. The possible light damage done in the absence of photosensitizer was evaluated by irradiating Cath E-positive Mpanc96-CTSE cells with various doses (2.5, 5, 10, 15, and 18 J/cm^2) of light using a diode laser system (652 nm; B&W TEK, Newark, Del.). Phototoxicity of the 5-ALA prodrug was assessed by incubating Mpanc96-CTSE and Mpanc96-FG30 cells in 96-well plates with 0.1 μM 5-ALA prodrug for 30 minutes at 37° C. The cells were washed several times with PBS, the medium was replaced with growth medium, and the cells were treated with a single dose of 10 J/cm2. After PDT, the treated cells and controls were incubated overnight followed by imaging to detect changes in cell morphology.

MPanc96-CTSE cells [3] = format: cell-based; settings: human
Method: To determine the number of viable cells after light treatment, a homogeneous colorimetric method, the MTS Cell cytotoxicity assay (Cell Titer 96® Aqueous, Promega, Madison, Wis.) was used. MPanc96-CTSE and MPanc96-FG30 (2×10^4) cells were incubated with various concentrations (0.1, 0.5, 1, and 5 μM) of the 5-ALA prodrug for 30 minutes, followed by treatment with a range of light doses (2.5, 5, 10, and 15 J/cm^2) and incubated overnight at 37° C. and 5% CO2 in 96-well plates. Cells treated only with light or the 5-ALA prodrug were used as negative controls. […] The formation of colored formazan was measured directly in 96-well assay plates at 490 nm absorbance without additional processing. […] After PDT, MPanc96-CTSE cells were washed with PBS buffer, treated with 1 μL YO-PRO-1 and PI stock solution per milliliter medium and incubated on ice for 25 minutes, followed by fluorescence imaging using an inverted epifluorescence microscope. […]
To quantitate cell viability upon photodynamic treatment with the 5-ALA prodrug, PDAC cells were subjected to homogeneous, colorimetric MTS cytotoxicity assay. […] After incubating PDAC cells with the tetrazolium compound, living PDAC cells in culture were quantified directly by measuring the absorbance of the produced formazan product at 490 nm.

SMILES | Apoptosis in PDAC tissue sections (TUNEL) [1] | PpIX fluorescence signal in cells (TRITC channel) (MPanc96-CTSE cells [2]) | Cell viability (MTS) (MPanc96-CTSE cells [3])
NCC(=O)CCC(=O)O [free 5-ALA, 5-aminolevulinic acid] | multiple apoptotic cells | comparable | 
CC(C)C[C@H](NC(=O)[C@H](CO)NC(=O)[C@H](Cc1ccccc1)NC(=O)CNC(=O)[C@H](C)NC(=O)[C@H](CCC(N)=O)NC(=O)[C@@H](N)CCCNC(=N)N)C(=O)NCC(=O)CCC(=O)O [5-ALA prodrug, H-Arg-Gln-Ala-Gly-Phe-Ser-Leu-5-ALA-OH] (H-RQAGFSL-X1) |  |  | approximately 20%
